Test [1] deals with cultured cortical neurons. In words: in vitro ischemia (sodium azide/glucose deprivation), fura-2 [Ca2+]i. The format is cell-based, rat. The following applies: for IC50: Langmuir-Hill fit, read-out: IC50 (half-maximal concentration), inhibition of ischemia-evoked increases in [Ca2+]i. As for the experimental part: The effects of sigma receptors on ischemia-induced changes in intracellular calcium concentrations were studied in cultured cortical neurons from embryonic (E18) rats. Dams were euthanatized by decapitation, uterus removed, and embryos dissected out and placed in isotonic buffer containing (in mM): 137 NaCl, 5 KCl, 0.2 NaH2PO4, 0.2 KH2PO4, 5.5 glucose, 6 sucrose (pH 7.4 with NaOH). Cortex were excised and minced, and tissue digested in isotonic buffer containing 0.25% trypsin/EDTA for 10 min at 37° C. and added to 3× volume of high glucose culture media (Dulbecco's Modified Eagle Media; Invitrogen, Inc., Carlsbad, Calif.), 10% (v/v) fetal calf serum, 100 U/ml penicillin and 0.1 mg/ml streptomycin. Cells were counted on a hemocytometer, plated (0.5×10^6 cells) on 18 mm coverslips coated with poly-l-lysine, and incubated at 37° C. under a 95% air, 5% CO2 atmosphere. After 24 hr the media was replaced with Neurobasal (Invitrogen) medium supplemented with B27 (Invitrogen) and 0.5 mM 1-glutamine to limit astrocyte proliferation in the cultures. Cells were used after 14-21 days in culture.
Intracellular free-calcium was measured using the calcium sensitive dye, fura-2 as previously described (DeHaven and Cuevas, 2004). Cells plated on coverslips were incubated for 1 hour at room temperature in physiological saline solution (PSS) consisting of (in mM): 140 NaCl, 3 KCl, 2.5 CaCl2, 1.2 MgCl2, 7.7 glucose and 10 HEPES (pH to 7.2 with NaOH), which also contained 1 μM of the membrane permeable ester form of fura-2, acetoxymethylester (fura-2 AM) and 0.1% dimethyl sulfoxide (DMSO). The coverslips were then washed in PSS (fura-2 AM free) prior to the experiments being carried out. All solutions were applied via a rapid application system identical to that previously described (Cuevas and Berg, 1998).
A DG-4 high-speed wavelength switcher (Sutter Instruments Co., Novato, Calif.) was used to apply alternating excitation light, and fluorescent emission was captured using a Sensicam digital CCD camera (Cooke Corporation, Auburn Hills, Mich.) and recorded with Slidebook 3.0 software (Intelligent Imaging Innovations, Denver, Colo.). Changes in [Ca^2+]i were calculated using the Slidebook 3 software (Intelligent Imaging Innovations) using methods described previously (DeHaven and Cuevas, 2004).
In vitro ischemia was achieved using the sodium azide/glucose deprivation model.
The control bath solution for all experiments was a physiological saline solution (PSS) containing (in mM) 140 NaCl, 1.2 MgCl2, 3 KCl, 2.5 CaCl2, 7.7 glucose and 10 HEPES, pH to 7.2 with NaOH. All drugs were applied in this solution unless otherwise noted. In vitro ischemia was induced by addition of the cytochrome oxidase inhibitor, NaN3 (4 mM), and removal of glucose from the PSS. For experiments in which multiple ischemic episodes were induced in a single cell, the order of drug application was alternatively reversed to compensate for any effects due to rundown, desensitization or ischemic preconditioning. For experiments with metaphit, cells were preincubated in 50 μM metaphit during the last 15 mm of fura-2 loading and immediately prior to experiments being conducted. The metaphit was washed off for 5 min in the bath using PSS.

In another test the test system is ASIC channels. In words: low-pH (pH 6.0) evoked ASIC-mediated increases in [Ca2+]i. In kind it is cell-based, rat. The settings on record: 50 μM, pH 6.0, reversible.
The next test deals with sigma-1 receptors (Homo sapiens, UniProt Q99720). The settings on record: cited from earlier work.
Test [2] has as its system delayed outwardly rectifying K+ channels. The following applies: frog pituitary melanotrophs; read-out: IC50 inhibition of delayed outwardly rectifying K+ channels; cited from earlier work.
In the next test the test system is voltage-gated K channels. The following applies: rat intracardiac neurons; read-out: IC50 inhibition of voltage-gated K channels; cited from earlier work.
In the next test the test system is glutamate receptors. The following applies: cited from earlier work.
Test [3] relates to transient ischemia model (MCAO). The following applies: intravenous, 1-2 hr following reperfusion; cited from earlier work.
The subject of test [4] is cultured cortical neurons. As to the kind of experiment: spontaneous Ca2+ transients, fura-2 [Ca2+]i. The format is cell-based, rat.
In a further test the test system is rat hippocampal slices. The settings on record: rat hippocampal slices (Thurgur and Church, 1998); read-out: value reported for inhibition of epileptiform activity; cited from earlier work.
Another test has as its target sigma-2 receptors (Homo sapiens, UniProt Q5BJF2). The following applies: cited from earlier work.
Another test has as its system voltage-gated Ca2+. The following applies: rat intracardiac neurons; read-out: IC50 inhibition of voltage-gated Ca2+; cited from earlier work.

This is an account of results in patent publication US20070123556A1, “Treatment with Sigma Receptor Agonists Post-Stroke” (UNIVERSITY OF SOUTH FLORIDA, priority 2005, published 2007).

Like-named read-outs stand apart in the source and are kept apart here. A value given as a limit tells only on which side of the number the result lay.

sigma-1 receptors, sequence (Q99720 whole entry): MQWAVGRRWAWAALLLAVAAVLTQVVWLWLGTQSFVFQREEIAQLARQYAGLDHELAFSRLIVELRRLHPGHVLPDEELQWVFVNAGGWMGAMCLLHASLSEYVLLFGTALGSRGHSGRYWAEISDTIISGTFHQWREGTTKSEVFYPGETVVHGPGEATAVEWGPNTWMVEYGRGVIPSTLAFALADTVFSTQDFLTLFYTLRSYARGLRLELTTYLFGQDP
sigma-2 receptors, sequence (Q5BJF2 whole entry): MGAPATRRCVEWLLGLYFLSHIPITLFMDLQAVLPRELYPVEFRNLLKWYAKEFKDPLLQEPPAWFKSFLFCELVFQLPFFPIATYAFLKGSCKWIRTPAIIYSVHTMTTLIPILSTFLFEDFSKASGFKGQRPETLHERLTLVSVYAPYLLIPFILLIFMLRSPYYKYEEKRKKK

Regarding `CC(C)=CCN1CCC2(C)c3cc(O)ccc3CC1C2C` (single isomer, unassigned; (+)) [(+)-pentazocine], the “decrease of ischemia-induced elevations in [Ca2+]i” value is listed as 37±5% in test [1] (10 μM); approximately 60% in test [1] (10 μM, listed as (+) pentazocine); 49±4% in test [1] (100 μM). Further, the “decrease of low-pH evoked increases in [Ca2+]i” value in the test with ASIC channels is listed as 50%. The “affinity of sigma-1 receptors relative to ibogaine” value on sigma-1 receptors is approximately 2000 fold. Besides, the IC50 in [2] was 37 µM; in the test on voltage-gated K channels it was 42 µM.

As for `C=CCN1CCC2(C)c3cc(O)ccc3CC1C2C` (single isomer, unassigned; (+)) [(+)SKFIOO47], the “inhibition of calcium elevations evoked by glutamate application” value (“inhibition of calcium elevations evoked” for short) in the test with glutamate receptors (10 μM) is listed as “inhibit”.

In the case of `CN(C)CCN(C)CCc1ccc(Cl)c(Cl)c1` [BD-1047, N-[2-(3,4-dichlorophenyl)ethyl]-N-methyl-2-(dimethylamino)ethylamine], the “reduction of the effects of DTG on ischemia-evoked calcium transients” value is 15% in test [1] (1 pM BD-1047, with DTG) and 55% in test [1] (10 pM BD-1047, with DTG).

Turning to `c1ccc(CCCCN2CCC(c3ccccc3)CC2)cc1` [PPBP, 4-phenyl-1-(4-phenylbutyl)piperidine], the “decrease in neurodegeneration in brain sections” value in [3] was 40%.

With `O=C(OCCN1CCOCC1)C1(c2ccccc2)CCCCC1` [PRE-084], the “decrease of ischemia-induced elevations in [Ca2+]i” value in test [1] (10 μM) is listed as 26±4%; in test [1] (100 μM), 58±1%.

As to `NC1=N[C@H](O)[C@H]2[C@H]3O[C@]4(O)O[C@@H]([C@@H](O)[C@@]2(N1)[C@@H]4O)[C@]3(O)CO` [TTX, tetrodotoxin], the “decrease of ischemia-evoked increase in [Ca2+]i” value in [1] was determined as 65±4%.

For the molecule `CCN(CC)CCOCCOC(=O)C1(c2ccccc2)CCCC1` [carbetapentane], the IC50 was 13 µM in [1]; 13.3 µM in test [1] (Rattus norvegicus, Cortical neurone); 38 µM in the test on rat hippocampal slices. For the same molecule, the “effect on spontaneous increases in [Ca2+]i (number of events)” value in [4] (100 μM) was “significant decrease”. In addition, the “affinity of sigma-1 receptors relative to sigma-2 receptors” value at sigma-1 receptors (sigma-1 over sigma-2) is given as more than 30 fold. For the same molecule, the “inhibition of calcium elevations evoked” value with glutamate receptors (100 μM) is reported as “not”.

Turning to `O=C(CCCN1CCC(O)(c2ccc(Cl)cc2)CC1)c1ccc(F)cc1` [haloperidol], in the test on glutamate receptors (10 μM), the “inhibition of calcium elevations evoked” value is reported as “inhibit”.

As to `C/C=C(/C)C(=O)O[C@H]1C(C)=C2[C@H]([C@@H]1OC(=O)CCCCCCC)[C@@](C)(OC(C)=O)C[C@H](OC(=O)CCC)[C@@]1(O)[C@H]2OC(=O)[C@@]1(C)O` [thapsigargin], the “effect on ischemia-induced peak elevation in [Ca2+]i” value in test [1] (10 μM, thapsigargin by preincubation) was “decreased the peak elevation”.

Consider ibogaine, for which, in test [1] (1-100 μM), the “effect on ischemia-induced elevations in [Ca2+]i” value is “failed to inhibit”. Besides, the “effect on number of spontaneous calcium events” value in test [4] (50 μM) is given as “significantly decreased”. Moreover, in the test on ASIC channels, the “decrease of low-pH evoked increases in [Ca2+]i” value came out at 70%. For the same molecule, the “affinity of sigma-2 receptors relative to (+)-pentazocine” value on sigma-2 receptors is listed as approximately 6 fold. Further, the “affinity of sigma-2 receptors relative to sigma-1 receptors” value at sigma-2 receptors (sigma-2 over sigma-1) is more than 40 fold. In the test on voltage-gated Ca2+, the IC50 is 31 µM.

With metaphit, the “ischemia-induced elevation in [Ca2+]i” value in [1] (preincubation in 50 μM metaphit, no DTG) was 495 ± 68 nM.

Turning to ryanodine, the “effect on ischemia-induced peak elevation in [Ca2+]i” value in test [1] is on record as “did not significantly alter”.
